ChEMBL document CHEMBL5137042, “Tetrahydropyridin-4-ylpicolinoylglycines as novel and orally active prolyl hydroxylase 2 (PHD2) inhibitors for the treatment of renal anemia” (Eur J Med Chem, 2022)
pIC50: −log10 of the molar value. One block for each molecule: values may come before it. Activity calls are given as the source filed them. The calls are words filed in the database; no cut-off is given here.

Assays:
Egl nine homolog 1 = Egl nine homolog 1 (Homo sapiens, UniProt Q9GZT9); assay: Inhibition of PHD2 (181 to 426 residue) (unknown origin) measured by fluorescence polarization assay
[1] = Cytotoxicity against human Hep3B cells assessed as cell viability at 100 uM incubated for 24 hrs by CCK8 assay relative to control; type: toxicity, cell-based, Hep 3B2; settings: read-out: Activity
Mus musculus [2] = assay: Induction of reticulocytes production in C57BL/6 mouse at 20 mg/kg, po measured at day 3 and 3 days post-dose; type: functional, organism-based; settings: time 3.0 day
Hep3B = assay: Induction of HIF-alpha stabilization in human Hep3B cells assessed as fold increase in EPO transcriptional activity at 5 uM incubated for 12 hrs by qRT-PCR analysis; type: cell-based
Mus musculus [3] = assay: Induction of reticulocytes production in po dosed C57BL/6 mouse measured at day 3 and 3 days post-dose; type: functional, organism-based; settings: dose 10-50 mg/kg, time 3.0 day, DDE = dose-dependent effect
[4] = Toxicity in ICR mouse assessed as increase in body weight at 15 to 100 mg/kg, po administered every other day and measured upto 14 days; type: organism-based; settings: in vivo, 336 h, dose 15-100 mg/kg, time < 14 day
[5] = Toxicity in male ICR mouse assessed as change in lung to body weight ratio at 15 to 100 mg/kg, po administered every other day and measured after 14 days; type: organism-based; settings: in vivo, 336 h, dose 15-100 mg/kg, time 14 day
[6] = Toxicity in male ICR mouse assessed as change in heart to body weight ratio at 15 to 100 mg/kg, po administered every other day and measured after 14 days; type: organism-based; settings: in vivo, 336 h, dose 15-100 mg/kg, time 14 day
[7] = Toxicity in male ICR mouse assessed as change in liver to body weight ratio at 15 to 100 mg/kg, po administered every other day and measured after 14 days; type: organism-based; settings: in vivo, 336 h, dose 15-100 mg/kg, time 14 day
[8] = Toxicity in male ICR mouse assessed as change in kidney to body weight ratio at 15 to 100 mg/kg, po administered every other day and measured after 14 days; type: organism-based; settings: in vivo, 336 h, dose 15-100 mg/kg, time 14 day
[9] = Toxicity in male ICR mouse assessed as change in spleen to body weight ratio at 15 to 100 mg/kg, po administered every other day and measured after 14 days; type: organism-based; settings: in vivo, 336 h, dose 15-100 mg/kg, time 14 day
[10] = Toxicity in female ICR mouse assessed as change in lung to body weight ratio at 15 to 100 mg/kg, po administered every other day and measured after 14 days; type: organism-based; settings: in vivo, 336 h, dose 15-100 mg/kg, time 14 day
[11] = Toxicity in female ICR mouse assessed as change in heart to body weight ratio at 15 to 100 mg/kg, po administered every other day and measured after 14 days; type: organism-based; settings: in vivo, 336 h, dose 15-100 mg/kg, time 14 day
[12] = Toxicity in female ICR mouse assessed as change in liver to body weight ratio at 15 to 100 mg/kg, po administered every other day and measured after 14 days; type: organism-based; settings: in vivo, 336 h, dose 15-100 mg/kg, time 14 day
[13] = Toxicity in female ICR mouse assessed as change in kidney to body weight ratio at 15 to 100 mg/kg, po administered every other day and measured after 14 days; type: organism-based; settings: in vivo, 336 h, dose 15-100 mg/kg, time 14 day
[14] = Toxicity in female ICR mouse assessed as change in spleen to body weight ratio at 15 to 100 mg/kg, po administered every other day and measured after 14 days; type: organism-based; settings: in vivo, 336 h, dose 15-100 mg/kg, time 14 day
[15] = Renal toxicity in ICR mouse assessed as effect on BUN level at 15 to 100 mg/kg, po administered every other day and measured after 14 days; type: organism-based; settings: in vivo, 336 h, dose 15-100 mg/kg, time 14 day
[16] = Renal toxicity in ICR mouse assessed as effect on […] level at 15 to 100 mg/kg, po administered every other day and measured after 14 days; type: organism-based; settings: in vivo, 336 h, dose 15-100 mg/kg, time 14 day
[17] = Hepatotoxicity in ICR mouse assessed as effect on […] level at 15 to 100 mg/kg, po administered every other day and measured after 14 days; type: toxicity, organism-based; settings: in vivo, 336 h, dose 15-100 mg/kg, time 14 day
[18] = Hepatotoxicity in ICR mouse assessed as effect on ALT level at 15 to 100 mg/kg, po administered every other day and measured after 14 days; type: toxicity, organism-based; settings: in vivo, 336 h, dose 15-100 mg/kg, time 14 day
[19] = Toxicity in ICR mouse assessed as heart edema at 15 to 100 mg/kg, po administered every other day and measured after 14 days by H and E staining method; type: organism-based; settings: in vivo, 336 h, dose 15-100 mg/kg, time 14 day
[20] = Toxicity in ICR mouse assessed as liver edema at 15 to 100 mg/kg, po administered every other day and measured after 14 days by H and E staining method; type: organism-based; settings: in vivo, 336 h, dose 15-100 mg/kg, time 14 day
[21] = Toxicity in ICR mouse assessed as lung edema at 15 to 100 mg/kg, po administered every other day and measured after 14 days by H and E staining method; type: organism-based; settings: in vivo, 336 h, dose 15-100 mg/kg, time 14 day
[22] = Toxicity in ICR mouse assessed as spleen edema at 15 to 100 mg/kg, po administered every other day and measured after 14 days by H and E staining method; type: organism-based; settings: in vivo, 336 h, dose 15-100 mg/kg, time 14 day
[23] = Toxicity in ICR mouse assessed as kidney edema at 15 to 100 mg/kg, po administered every other day and measured after 14 days by H and E staining method; type: organism-based; settings: in vivo, 336 h, dose 15-100 mg/kg, time 14 day

Egl nine homolog 1, sequence (Q9GZT9 whole entry): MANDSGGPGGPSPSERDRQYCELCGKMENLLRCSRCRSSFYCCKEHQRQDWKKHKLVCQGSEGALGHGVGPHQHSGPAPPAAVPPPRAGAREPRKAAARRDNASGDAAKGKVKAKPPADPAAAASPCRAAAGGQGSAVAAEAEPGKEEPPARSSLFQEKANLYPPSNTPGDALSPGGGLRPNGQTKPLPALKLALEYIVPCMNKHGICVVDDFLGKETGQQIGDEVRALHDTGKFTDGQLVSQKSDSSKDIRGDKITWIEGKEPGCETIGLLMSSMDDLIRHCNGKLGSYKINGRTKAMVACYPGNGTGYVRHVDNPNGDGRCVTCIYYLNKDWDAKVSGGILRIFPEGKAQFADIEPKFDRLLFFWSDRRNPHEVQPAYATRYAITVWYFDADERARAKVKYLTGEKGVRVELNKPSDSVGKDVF

Compound: O=C(O)CNC(=O)c1ncc(C2=CCN(S(=O)(=O)Cc3ccc(Cl)cc3)CC2)cc1O
pIC50 (Egl nine homolog 1): 8.21
viability at 24 h, 100 µM [1]: > 80%
Activity (Mus musculus [2]): Active

Compound: O=C(O)CNC(=O)c1ncc(C2=CCN(S(=O)(=O)Cc3ccc(Br)cc3)CC2)cc1O
pIC50 (Egl nine homolog 1): 8.16
viability at 24 h, 100 µM [1]: > 80%
FC (Hep3B): 2
Activity (Mus musculus [2]): Active

Compound: CC(C)(C)c1ccc(S(=O)(=O)N2CC=C(c3cnc(C(=O)NCC(=O)O)c(O)c3)CC2)cc1
pIC50 (Egl nine homolog 1): 6.10

Compound: O=C(O)CNC(=O)c1ncc(C2=CCN(S(=O)(=O)c3cccnc3)CC2)cc1O
pIC50 (Egl nine homolog 1): 7.29

Compound: O=C(O)CNC(=O)c1ncc(C2=CCN(S(=O)(=O)Cc3ccc(OC(F)(F)F)cc3)CC2)cc1O
pIC50 (Egl nine homolog 1): 8.18
viability at 24 h, 100 µM [1]: > 80%
Activity (Mus musculus [2]): Active
Activity (Mus musculus [3]): Dde
Activity [4]: Non-Toxic
Activity [5]: Non-Toxic
Activity [6]: Non-Toxic
Activity [7]: Non-Toxic
Activity [8]: Non-Toxic
Activity [9]: Non-Toxic
Activity [10]: Non-Toxic
Activity [11]: Non-Toxic
Activity [12]: Non-Toxic
Activity [13]: Non-Toxic
Activity [14]: Non-Toxic
Activity [15]: Non-Toxic
Activity [16]: Non-Toxic
Activity [17]: Non-Toxic
Activity [18]: Non-Toxic
Activity [19]: Non-Toxic
Activity [20]: Non-Toxic
Activity [21]: Non-Toxic
Activity [22]: Non-Toxic
Activity [23]: Non-Toxic

Compound: O=C(O)CNC(=O)c1ncc(C2=CCN(Cc3ccc(Cl)cc3)CC2)cc1O
pIC50 (Egl nine homolog 1): 7.13

Compound: O=C(O)CNC(=O)c1ncc(C2=CCN(S(=O)(=O)c3cccc4ccccc34)CC2)cc1O
pIC50 (Egl nine homolog 1): 7.65

Compound: O=C(O)CNC(=O)c1ncc(C2=CCN(C(=O)c3ccc(Cl)cc3)CC2)cc1O
pIC50 (Egl nine homolog 1): 7.60

Compound: O=C(O)CNC(=O)c1ncc(C2=CCN(S(=O)(=O)Cc3ccc(F)cc3)CC2)cc1O
pIC50 (Egl nine homolog 1): 8.20
viability at 24 h, 100 µM [1]: > 80%
Activity (Mus musculus [2]): Active

Compound: O=C(O)CNC(=O)c1ncc(C2=CCN(S(=O)(=O)c3ccc(OC(F)(F)F)cc3)CC2)cc1O
pIC50 (Egl nine homolog 1): 7.29

Compound: Cc1ccc(S(=O)(=O)N2CC=C(c3cnc(C(=O)NCC(=O)O)c(O)c3)CC2)cc1
pIC50 (Egl nine homolog 1): 7.34

Compound: O=C(O)CNC(=O)c1ncc(C2=CCN(S(=O)(=O)Cc3ccccc3)CC2)cc1O
pIC50 (Egl nine homolog 1): 7.74

Compound: O=C(O)CNC(=O)c1ncc(C2=CCN(S(=O)(=O)c3ccc(Br)cc3)CC2)cc1O
pIC50 (Egl nine homolog 1): 7.53

Compound: O=C(O)CNC(=O)c1ncc(C2=CCN(S(=O)(=O)c3ccc(F)cc3)CC2)cc1O
pIC50 (Egl nine homolog 1): 7.36

Compound: O=C(O)CNC(=O)c1ncc(C2=CCN(S(=O)(=O)c3ccc(C(F)(F)F)cc3)CC2)cc1O
pIC50 (Egl nine homolog 1): 7.14

Compound: O=C(O)CNC(=O)c1ncc(C2=CCN(S(=O)(=O)c3cccc(F)c3)CC2)cc1O
pIC50 (Egl nine homolog 1): 6.85

The next lines start with results.

pIC50 (Egl nine homolog 1): 6.23
Compound: O=C(O)CNC(=O)c1ncc(C2CCN(Cc3ccc(Cl)cc3)CC2)cc1O

pIC50 (Egl nine homolog 1): 8.10
Compound: O=C(O)CNC(=O)c1ncc(C2=CCN(S(=O)(=O)Cc3ccc(C(F)(F)F)cc3)CC2)cc1O
viability at 24 h, 100 µM [1]: > 80%
Activity (Mus musculus [2]): Active

pIC50 (Egl nine homolog 1): 6.88
Compound: O=C(O)CNC(=O)c1ncc(C2=CCN(S(=O)(=O)c3ccccc3)CC2)cc1O

pIC50 (Egl nine homolog 1): 7.33
Compound: O=C(O)CNC(=O)c1ncc(C2=CCN(S(=O)(=O)c3cccs3)CC2)cc1O

pIC50 (Egl nine homolog 1): 7.01
Compound: O=C(O)CNC(=O)c1ncc(C2=CCN(S(=O)(=O)c3ccc4ccccc4c3)CC2)cc1O

pIC50 (Egl nine homolog 1): 7.08
Compound: O=C(O)CNC(=O)c1ncc(C2=CCN(S(=O)(=O)c3ccccc3F)CC2)cc1O

pIC50 (Egl nine homolog 1): 7.57
Compound: O=C(O)CNC(=O)c1ncc(C2=CCN(S(=O)(=O)c3ccc(Cl)cc3)CC2)cc1O

pIC50 (Egl nine homolog 1): 7.57
Compound: O=C(O)CNC(=O)c1ncc(C2=CCN(C(=O)Nc3ccc(Cl)cc3)CC2)cc1O

pIC50 (Egl nine homolog 1): 7.68
Compound: N#Cc1ccc(S(=O)(=O)N2CC=C(c3cnc(C(=O)NCC(=O)O)c(O)c3)CC2)cc1
